Results reported in patent US8785483B2, “Methods for treating COPD” (The Board of Regents of the University of Texas System, priority 2010, dated 2014).

Experiments:
SAEC = experiment: Cytokines, chemokines and growth factors by Milliplex in SAEC culture media after CSE; format: cell-based, human; conditions: 24 h after CSE (50%)
Method: FIG. 2. CSE-induced changes in cytokine levels in SAEC prevented by aldose reductase (AR) inhibition. *p<0.01 Vs Control; **p<0.05 Vs CSE 50%; #p<0.001 Vs Control; ##p<0.01 Vs CSE 50% Primary human Small Airway Epithelial Cells (SAEC) obtained from Lonza (Walkersville, Md.) were normal human SAEC harvested from distal airspace of donor. The cells were cultured according to the supplier's instructions at 37° C. in humidified atmosphere containing 95% air and 5% CO2 in small airway epithelial basal medium (SABM) with supplements containing 52 μg/ml bovine pituitary extract, 0.5 ng/ml human recombinant epidermal growth factor (EGF), 0.5 μg/ml epinephrine, 1 μg/ml hydrocortisone, 10 μg/ml transferrin, 5 μg/ml insulin, 0.1 ng/ml retinoic acid (RA), 6.5 ng/ml triiodothyronine, 50 μg/ml Gentamicin/Amphotericin-B (GA-1000), and 50 μg/ml fatty acid-free bovine serum albumin (BSA). Research-grade cigarettes (1R3F) with a filter from the Kentucky Tobacco Research and Development Center at the University of Kentucky (Lexington, Ky.) were smoked to 0.5 cm above the filter in a fume hood, using a modification of the method developed by Carp and Janoff (Am Rev Respir Dis. 1978; 118(3):617-621). […] The levels of cytokines and chemokines in the supernatant were determined by Milliplex MAP kits according to the manufacturer's instructions (Millipore Corporation, Bellerica, Mass.)).

[1] = test system: airway epithelial cell monolayer (SAEC at ALI); experiment: Air-liquid interface culture: IL-13-induced loss of cilia and goblet cell metaplasia (H&E, PAS, β-tubulin and Muc5AC immunostaining); format: cell-based, human
Method: FIGS. 4A-4B. AR inhibition prevents IL-13-induced loss of cilia and β-tubulin in airway epithelial cell monolayer. Approximately 8.5×10^4 SAEC were seeded per 12 mm diameter PET transparent insert and cultured for 7 days in differentiation media supplied from both lower and upper sides followed by culture on ALI for 11 days for differentiation into ciliated cells. The monolayer was treated with AR inhibitor for overnight and stimulated with IL-13 for 48 h. The monolayers on the membrane inserts were fixed for 24 h in z-fix (10% buffered formalin with zinc) at 4° C., paraffin embedded and […] sections were cut. (A) The H&E stained sections were examined under the light microscope; magnification 400×. […] (B) Immunohistochemistry using β-tubulin antibodies was performed on the sections. Dark brown staining in the monolayer corresponds to cilia axoneme β-tubulin. Arrows show loss of β-tubulin as the ciliated cells transform into goblet cells. A representative photomicrograph has been shown (n=4); magnification 400×. FIGS. 5A-5B. AR inhibition prevents IL-13-induced goblet cell metaplasia and expression of Muc5AC in airway epithelial monolayer. (A) The well-differentiated airway epithelial cells at air-liquid interface (ALI) were incubated with IL-13 for 48 h without or with AR inhibitor, fidarestat. The monolayer was fixed as described and immunohistochemistry using Muc5AC antibodies was performed on the sections. A representative photomicrograph is shown (n=4); magnification 400×. […] (C) The airway epithelial monolayer was incubated with IL-13 submerged in basal medium for 48 h in the absence and presence of AR inhibitor, fidarestat. The culture medium was collected from the top chamber and utilized for determination of Muc5AC by an ELISA, (n=4); *p<0.005 vs Control; **p<0.01 vs IL-13. For air-liquid interface (ALI) culture, SAEC were seeded at 8.5×10^4 cells/12-mm-diameter PET transparent insert with […] pores (12-well millicell culture insert; Millipore) and pre-coated with rat tail collagen type-1 (Sigma-Aldrich). The cells were grown submerged in the differentiation medium as described earlier by Zhen et al. (Am J Respir Cell Mol Biol 36: 244-253, 2007). The differentiation medium contained a 1:1 mixture of DMEM and small airway epithelial growth medium supplemented as described above, except that gentamycin sulfate, amphotericin B, and triiodothyronine were replaced with 1% penicillin/streptomycin, and 50 nM all-trans retinoic acid. The SAEC were maintained submerged for the first 7 days, after which the apical medium was removed and an air-liquid interface culture was established. […] The stained sections were analyzed and representative fields were photographed using a Photometrix CoolSNAP Fx camera mounted on a NIKON Eclipse TE 200 UV microscope. […]

For `NC(=O)[C@@H]1C[C@]2(NC(=O)NC2=O)c2cc(F)ccc2O1` [fidarestat, (2S,4S)-2-aminoformyl-6-fluoro-spiro[chroman-4,4′-imidazolidine]-2′,5′-dione], the “prevention of CSE-induced increase in chemokines (G-CSF, MCP-1, GM-CSF, IP-10) and growth factors (TGF-α, VEGF)” value (SAEC) was “more than 50%”, the “prevention of CSE-induced increase in cytokines (IL-1a, IL-8, TNF-α)” value (SAEC) was “significantly (p<0.05 and 0.01) prevented” and the “decrease in number of Muc5AC positive cells” value ([1]; IL-13 48 h, Muc5AC immunostaining) was ~70%. The “ciliated morphology (β-tubulin immunostaining) after IL-13” value ([1]; fidarestat 10 μM overnight, IL-13 25 ng/ml 48 h) was “preserved the ciliated morphology”, the “differentiation of airway cells into goblet cells (PAS staining)” value ([1]; inhibitor added prior to IL-13 challenge, 48 h, data not shown) was “prevented the airway cells from differentiating into goblet cells” and the “toxic effects of AR inhibitor alone on monolayer of ciliated cells” value ([1]; inhibitor alone, no IL-13) was “no toxic effects”.
